US4661482A, “Use of pyrazolobenzoxazines in method of treating cerebral senescence and cerebral hypoxin” (Roussel Uclaf, priority 1985, dated 1987)

Tests used:
[1] = Determination of hypotensive activity (carotidien arterial pressure, anesthetised rats); type: in vivo, male rats of WISTAR strain; conditions: vs initial control pressure
Description: The hypotensive activity was studied on male rats of WISTAR strain weighing about 300 g and anesthetised with nembutal (50 mg/kg by intraperitoneal route). The test product was administered intravenously into the jugular vein and the carotidien arterial pressure was measured before and after administration of the product. The following table reports the variations expressed in percentages of the arterial pressure after administration of the product in relation to the initial control arterial pressure.

[2] = Test of hypobare anoxemia (antianoxic activity); type: in vivo, male mice; conditions: head: orally, text: sub-cutaneously, 90 mm of Hg
Description: A--Test of hypobare anoxemia:
Male mice weighing 20-22 g, having fasted for 5 hours, were divided into groups of 10 animals and the test product was administered to the animals sub-cutaneously. Fifteen minutes after administration of the product, the animals were placed in a 2 liter dessicator in which the pressure was brought rapidly to 90 mm of Hg by a pump, and their time of survival was noted expressed in seconds. The increase of the survival time was recorded expressed as a percentage of the animals treated in relation to the control animals submitted to the same conditions.

Acute toxicity (LD0) = type: in vivo; conditions: oral, mice
Description: The lethal dose LD0 of the product of Example 3 was evaluated after oral administration to mice. LD0 is the maximum dose not causing any mortality in 8 days.

dopaminergic receptors [3] = experiment: Rotation behavior after unilateral lesion of the nigra-striated bundle by 6-hydroxydopamine; type: in vivo, male rats; conditions: intraperitoneal; rats, groups of 8; starting dose
Description: Male rats of 220 g were injured in the nigra-striated dopaminergic bundle according to Ungerstedt's method [Ungerstedt, Acta physiol. Scand. (1971) Vol. 82, suppl. 367.69-93], modified by unilateral injection of 9.2 μg of 6-hydroxydopamine hydrochloride in solution in 4 μl of physiological solution containing 0.5 mg/ml of ascorbic acid. […] It therefore caused an agonistic action on the dopaminergic receptors at the central level.

[4] = Determination of antihypertensive activity (spontaneously hypertensive rats); type: in vivo, spontaneously hypertensive male rats of the OKAMOTO strain; conditions: 0.5 mg/kg orally; one hour after administration
Description: The anithypertensive activity was studied on spontaneously hypertensive male rats of the OKAMOTO strain aged 20 weeks and weighing 300 to 320 g. The product was administered orally 48 hours after the positioning of an intracarotidien catheter to measure the arterial pressure. The pressure was measured before and 1 hour after administration of the product. For the product of Example 3, at a dose of 0.5 mg/kg the variation in percentage of arterial pressure after administration of the product in relation to the initial control pressure was -15% one hour after administration.

cerebral neuronal cells = experiment: enolase test (brain deprived of blood by ligature of the arteries); type: in vivo; conditions: Rattus norvegicus, ip; intraperitoneal; rats; read-out: dose to which the releasing of enolase is diminished
Description: Suffering cerebral neuronal cells release enolase and the test was carried out on rats whose brain had been totally deprived of blood by ligature of the arteries supplying the brain. The product of Example 3 administered intraperitoneally diminished the releasing of enolase to a dose of 0.1 mg/kg. Therefore it was considered that it protected the cerebral cells against ischemia.

dopaminergic receptors [5] = experiment: Stereotype behavior; type: in vivo, male rats; conditions: intraperitoneal; rats, groups of 5; observed every half hour over 5 hours; starting dose
Description: The tests were carried out on groups of 5 male rats weighing 150 to 180 g and each animal was placed individually in a barred cage (29×25×17 cm) containing a few wood shaving. The test product was administered intraperitoneally and the behavior of the animals was noted every half hour over 5 hours with the rating recommended by HALLIWELL et al. [Brit. J. Pharmacol. (1964), Vol. 23, p. 330-350]. The animal was asleep (0), it was awake but immobile (1), it turned in the cage (2), it sniffed the cover (3), it licked the walls (4), it touched the wood shavings or the bars of the cage with its teeth (5), it bit the shavings or the bars of the cage (6).
The total is determined of the scores per group taken at different times after administrationof the product studied.

Row | Molecule | % Variation of arterial pressure, 5 minutes after administration ([1]; 0.01 mg/kg intravenous) [%] | % Variation of arterial pressure, 30 minutes after administration ([1]; 0.01 mg/kg intravenous) [%] | % Variation of arterial pressure, 5 minutes after administration ([1]; 0.1 mg/kg intravenous) [%] | % Variation of arterial pressure, 30 minutes after administration ([1]; 0.1 mg/kg intravenous) [%] | Increase in survival time ([2]; 1 mg/kg) | Increase in survival time ([2]; 0.01 mg/kg) | Increase in survival time ([2]; 0.1 mg/kg) | LD0 (maximum dose not causing any mortality in 8 days) (Acute toxicity (LD0)) [mg/kg] | dose from which rotations contra-lateral to the injured side are caused (dopaminergic receptors [3]) [mg/kg] | variation in percentage of arterial pressure in relation to the initial control pressure [4] [%] | minimal effective dose (cerebral neuronal cells) [mg/kg] | dose from which stereotype movements are caused (dopaminergic receptors [5]) [mg/kg]
1 | 4a RS (4aα,7α,8aβ)-7-methylthiomethyl-2,4,4a,5,6,7,8a,9-octahydro-5-propylpyrazolo-[3,4-g]-1,4-benzoxazine hydrochloride [Example 4] | -5 | -5 | -21 | -17 | +32% | – | – | – | – | – | – | –
2 | CCCN1CCO[C@@H]2Cc3n[nH]cc3C[C@H]21 (relative stereo) [Example 3, [4a SR trans]-5-propyl-2,4,4a,5,6,7,8a,9-octahydro-pyrazolo-[4,3-g]-1,4-benzoxazine] | -19 | -8 | -26 | -21 | – | +37% | +90% | ≥ 200 | 0.05 | -15 | 0.1 | 0.1
